Test results from patent publication EP2769738B1, “Conjugated TLR7 and/or TLR8 and TLR2 polycationic agonists” (Invivogen, priority 2013, dated 2014).

Target: T1, murine TLR7 (Mus musculus, UniProt P58681)
T1 construct: host or cells: HEK293 (ATCC, CRL-1573), HEK-Blue mTLR7
T1 sequence (P58681 27-1050): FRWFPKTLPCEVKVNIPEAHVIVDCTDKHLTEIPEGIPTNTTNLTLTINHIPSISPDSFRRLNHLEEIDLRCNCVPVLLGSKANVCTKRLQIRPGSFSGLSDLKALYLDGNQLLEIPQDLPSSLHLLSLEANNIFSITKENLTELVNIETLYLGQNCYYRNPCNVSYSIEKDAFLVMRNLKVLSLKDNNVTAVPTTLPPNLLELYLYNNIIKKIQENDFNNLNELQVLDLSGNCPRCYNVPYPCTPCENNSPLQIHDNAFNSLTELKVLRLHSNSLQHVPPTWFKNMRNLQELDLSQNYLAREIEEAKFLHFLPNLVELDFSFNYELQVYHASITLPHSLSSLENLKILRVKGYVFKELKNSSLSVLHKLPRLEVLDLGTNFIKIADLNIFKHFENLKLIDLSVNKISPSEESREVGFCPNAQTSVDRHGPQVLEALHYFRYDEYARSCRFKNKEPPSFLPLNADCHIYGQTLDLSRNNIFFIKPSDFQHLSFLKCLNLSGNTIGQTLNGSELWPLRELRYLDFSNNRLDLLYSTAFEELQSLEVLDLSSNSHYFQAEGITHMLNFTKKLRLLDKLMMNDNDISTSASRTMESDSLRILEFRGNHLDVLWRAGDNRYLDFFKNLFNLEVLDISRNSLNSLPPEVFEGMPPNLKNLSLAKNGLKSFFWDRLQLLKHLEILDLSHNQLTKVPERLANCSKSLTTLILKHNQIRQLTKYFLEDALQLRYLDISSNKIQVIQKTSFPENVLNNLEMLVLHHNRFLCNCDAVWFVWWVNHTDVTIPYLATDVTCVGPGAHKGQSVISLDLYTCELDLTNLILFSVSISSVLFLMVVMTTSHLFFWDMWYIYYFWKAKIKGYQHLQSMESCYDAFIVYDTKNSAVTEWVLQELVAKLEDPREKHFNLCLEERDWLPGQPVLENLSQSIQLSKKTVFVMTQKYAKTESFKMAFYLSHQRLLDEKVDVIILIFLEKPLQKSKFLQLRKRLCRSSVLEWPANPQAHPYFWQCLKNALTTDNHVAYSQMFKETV
Assay: HEK-Blue mTLR7 NF-κB/AP-1-inducible SEAP reporter cell assay
Assay type: cell-based
Details: Figure 2; 10 µg/mL to 10 pg/ml, 24 hours, SEAP read as OD at 655 nm
Description: Assays for detecting TLR7, TLR8 or TLR2 activity are known in the art and include for example cell-based assays using respectively TLR7, TLR8 or TLR2 reporter cell lines (InvivoGen). The reporter cell lines are engineered HEK293 cells, a human embryonic kidney cell line (ATCC, CRL-1573) that stably express either murine TLR7 (HEK-Blue™ mTLR7) or human TLR7 (HEK-Blue™ hTLR7), human TLR8 (HEK-Blue™ hTLR8) or human TLR2 (HEK- Blue™ hTLR2) with an NF-κB-inducible secreted embryonic alkaline phosphatase (SEAP) as the reporter gene.
Cell-based assays were carried out using TLR7 and TLR2 reporter cell lines (InvivoGen). The reporter cell lines are engineered HEK293 cells, a human embryonic kidney cell line (ATCC, CRL-1573) that stably express either murine TLR7 (HEK-Blue™ mTLR7) or human TLR7 (HEK-Blue™ hTLR7) or human TLR2 (HEK- Blue™ hTLR2) with an NF-κB-inducible secreted embryonic alkaline phosphatase (SEAP) as the reporter gene. The SEAP reporter gene is under the control of the NF-κB and AP-1-inducible promoter, which, upon treatment with a corresponding TLR ligand and activation of NF-κB and AP-1, induces the production of SEAP. Detection of SEAP is measured following culturing cells in HEK-Blue™ Detection media (InvivoGen). HEK-Blue™ Detection contains a SEAP substrate that when hydrolysed by SEAP produces a colorimetric change allowing for detection of SEAP as the protein is secreted. […] These assays were carried out using RAW-Blue™ Cells (InvivoGen), derived from RAW 264.7 mouse leukemic monocyte macrophage cell line (ATCC, CRL 2278) stably overexpressing a NF-κB /AP-1 inducible SEAP reporter constructs.
To perform the assay, cells were seeded on 96 well microliter plates at 50,000 or 100,000 cells per well for HEK-Blue™ Cells and RAW-Blue™ Cells respectively, and cultured at 37 °C in the presence of the conjugated compounds The TLR7-TLR2 polyamine molecules were prepared as follows: First, stock solutions of the conjugated compounds of the invention were prepared in ethanol or water to a concentration of 10 mg/ml.
The working dilutions of the conjugated TLR7-TLR2 polyamine agonists made up in water or PBS were directly added to the reporter cell lines at a final concentration ranging from 10 µg/mL to 10 pg/ml and incubated at 37 °C for 24 hours. After 24 hours of incubation, the effect on reporter gene activity was determined by reading the OD at 655 nm using iMark™ Microplate Reader (BIO-RAD).

Compound | ability to activate mTLR7
CCCCCCCCCCCCCCCC(=O)OCC(CSC[C@H](N)C(=O)N[C@@H](CCCCNC(=O)CNC(=O)c1ccc(Cn2c(O)nc3c(N)nc(NCCCC)nc32)cc1)C(=O)NCCCNCCCCNCCCN)OC(=O)CCCCCCCCCCCCCCC (stereo partly drawn) [CL475, (6R,9S)-6,23-diamino-9-(4-(2-(4-((6-amino-2-(butylamino)-8-hydroxy-9H-purin-9-yl)methyl)benzamido)acetamido)butyl)-7,10-dioxo-4-thia-8,11,15,20-tetraazatrico sane-1,2-diyl dipalmitate] | activate mTLR7
CCCCCCCCCCCCCCCC(=O)OCC(CSC[C@H](N)C(=O)N[C@@H](COC(=O)c1ccc(Cn2c(O)nc3c(N)nc(NCCCC)nc32)cc1)C(=O)NCCCNCCCCNCCCN)OC(=O)CCCCCCCCCCCCCCC (stereo partly drawn) [CL514, (6R,9S)-6,23-diamino-9-((4-((6-amino-2-(butylamino)-8-hydroxy-9H-purin-9-yl)methyl)benzoyloxy)methyl)-7,10-dioxo-4-thia-8,11,15,20-tetraazatricosane-1,2-diyl dipalmitate] | activate mTLR7
CCCCCCCCCCCCCCCC(=O)OCC(CSC[C@H](N)C(=O)N[C@@H](CCC(=O)NCCCNCCCCNCCCN)C(=O)Nc1ccc(Cn2c(O)nc3c(N)nc(NCCCC)nc32)cc1)OC(=O)CCCCCCCCCCCCCCC (stereo partly drawn) [CL527, (6R,9S)-6,25-diamino-9-(4-((6-amino-2-(butylamino)-8-hydroxy-9H-purin-9-yl)methyl)phenylcarbamoyl)-7,12-dioxo-4-thia-8,13,17,22-tetraazapentacosane-1,2-diyl dipalmitate] | activate mTLR7
CCCCCCCCCCCCCCCC(=O)OCC(CSC[C@H](N)C(=O)NCCCC[C@H](NC(=O)CNC(=O)c1ccc(Cn2c(O)nc3c(N)nc(NCCCC)nc32)cc1)C(=O)NCCCNCCCCNCCCN)OC(=O)CCCCCCCCCCCCCCC (stereo partly drawn) [CL487, (6R,13S)-6,27-diamino-13-(2-(4-((6-amino-2-(butylamino)-8-hydroxy-9H-purin-9-yl)methyl)benzamido)acetamido)-7,14-dioxo-4-thia-8,15,19,24-tetraazaheptacosane-1,2-diyl dipalmitate] | activate mTLR7
CCCCCCCCCCCCCCCC(=O)OCC(CSC[C@H](N)C(=O)NCCCNCCCCNCCCNC(=O)CNC(=O)c1ccc(Cn2c(O)nc3c(N)nc(NCCCC)nc32)cc1)OC(=O)CCCCCCCCCCCCCCC (stereo partly drawn) [CL553, (20R)-20-amino-1-(4-((6-amino-2-(butylamino)-8-hydroxy-9H-purin-9-yl)methyl)phenyl)-1,4,19-trioxo-22-thia-2,5,9,14,18-pentaazapentacosane-24,25-diyl dipalmitate] | activate mTLR7
CCCCCCCCCCCCCCCC(=O)OCC(CSC[C@H](N)C(=O)NCCCC[C@H](NC(=O)c1ccc(Cn2c(O)nc3c(N)nc(NCCCC)nc32)cc1)C(=O)NCCCNCCCCNCCCN)OC(=O)CCCCCCCCCCCCCCC (stereo partly drawn) [CL486, (6R,13S)-6,27-diamino-13-(4-((6-amino-2-(butylamino)-8-hydroxy-9H-purin-9-yl)methyl)benzamido)-7,14-dioxo-4-thia-8,15,19,24-tetraazaheptacosane-1,2-diyl dipalmitate] | activate mTLR7
